Assay results from patent US4621094A, “Anti-histaminic pyridyl compounds” (priority 1984, dated 1986).

Biological target: T1, H1 histamine receptor (Cavia porcellus, UniProt P31389)
T1 construct: The longitudinal muscle was isolated from the intact ileum of guinea pigs; from tissue; host or cells: ileum longitudinal muscle, guinea pig (Hartley, male 250-400 g)
Assay: Antihistaminic activity: antagonism of histamine concentration-response curves in isolated guinea pig ileum longitudinal muscle (Schild plot)
Assay type: cell-based, guinea pigs
Conditions: negative log of molar antagonist concentration shifting the control histamine concentration-response curve 2X to the right; tissue incubated one hour with test compound; organ bath, 300 mg tension; read-out: pA2 (converted)
Procedure: The longitudinal muscle was isolated from the intact ileum of guinea pigs (Hartley, male 250-400 g) and placed in an organ bath under 300 mg tension. After one hour of equilibration, cumulative concentration-response curves (Van Rossum, J. M., Arch. Int. Pharmacodyn. Ther. 143, 299-330, 1963) to histamine were obtained. Following washing, the tissues were incubated for one hour with the test compound and then a second histamine concentration-response curve was run. Shifts to the right of the agonist concentration-response curve produced by the antagonists were used to construct Schild plots (Arunlakshana, O. And Schild, H. O., Br. J. Pharmacol: 14, 48-58, 1959 ). Regression of Log (dr-1) on Log [B], where dr is an equiactive response in the presence and absence of antagonist and [B] is the molar concentration of antagonist, allowed an estimate of pA2, i.e. the negative log of the concentration of antagonist which shifts the control histamine concentration-response curve 2X to the right.

T1 sequence (P31389 whole entry): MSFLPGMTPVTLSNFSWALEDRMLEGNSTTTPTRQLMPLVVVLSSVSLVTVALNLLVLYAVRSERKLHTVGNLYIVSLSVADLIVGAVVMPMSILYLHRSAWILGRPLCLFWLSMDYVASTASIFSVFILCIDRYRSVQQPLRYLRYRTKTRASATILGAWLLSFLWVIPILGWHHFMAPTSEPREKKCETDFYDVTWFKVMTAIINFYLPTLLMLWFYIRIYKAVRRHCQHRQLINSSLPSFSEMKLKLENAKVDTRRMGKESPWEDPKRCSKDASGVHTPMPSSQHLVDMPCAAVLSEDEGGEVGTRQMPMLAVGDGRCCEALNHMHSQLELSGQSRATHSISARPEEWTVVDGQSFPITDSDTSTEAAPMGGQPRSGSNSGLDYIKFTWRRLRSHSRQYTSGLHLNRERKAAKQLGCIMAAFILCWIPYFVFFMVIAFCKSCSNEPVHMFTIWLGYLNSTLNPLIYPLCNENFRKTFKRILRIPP

CN(C)CCC(c1ccc(Cl)cc1)c1cccc(/C=C/C(=O)O)n1 (stereo not shown) [(E)-6-(1-(4-chlorophenyl)-3-dimethylaminopropyl)-2-pyridyl acrylic acid]
Kb: 2 µM
